Experimental data as given in article PMC11249626, “Fluorophore-Labeled Pyrrolones Targeting the Intracellular Allosteric Binding Site of the Chemokine Receptor CCR1” (ACS Pharmacology & Translational Science, 2024).

Assays:
CCR2 = target: T1, CCR2 (Homo sapiens, UniProt P41597); design: method as in PMID 35838163; conditions: membrane-based setup; cited from earlier work
T1 construct: host or cells: HEK293T, transient
T1 sequence (P41597 1-360 isoform P41597-2): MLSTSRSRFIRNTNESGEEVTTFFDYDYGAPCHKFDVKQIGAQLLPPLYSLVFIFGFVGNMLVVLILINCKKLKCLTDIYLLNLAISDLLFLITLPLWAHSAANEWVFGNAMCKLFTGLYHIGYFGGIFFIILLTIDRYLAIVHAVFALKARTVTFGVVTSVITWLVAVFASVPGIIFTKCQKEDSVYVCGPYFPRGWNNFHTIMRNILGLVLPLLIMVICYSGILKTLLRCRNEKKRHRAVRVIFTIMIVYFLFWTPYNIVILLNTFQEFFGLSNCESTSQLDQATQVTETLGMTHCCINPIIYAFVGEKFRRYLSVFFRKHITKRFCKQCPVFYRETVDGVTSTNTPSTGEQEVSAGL

CCR1 = target: T2, CCR1 (Homo sapiens, UniProt P32246); test: Membrane-based NanoBRET saturation binding assay, CCR1_Nluc membranes from HEK293T cells; design: Promega pNLF1-C (Nluc) #CCR010TN00; host or cells: HEK293T, transient (PEI); conditions: saturation binding of fluorescent ligand, read-out: KD (equilibrium, KD(eq.))
T2 sequence (P32246 1-355): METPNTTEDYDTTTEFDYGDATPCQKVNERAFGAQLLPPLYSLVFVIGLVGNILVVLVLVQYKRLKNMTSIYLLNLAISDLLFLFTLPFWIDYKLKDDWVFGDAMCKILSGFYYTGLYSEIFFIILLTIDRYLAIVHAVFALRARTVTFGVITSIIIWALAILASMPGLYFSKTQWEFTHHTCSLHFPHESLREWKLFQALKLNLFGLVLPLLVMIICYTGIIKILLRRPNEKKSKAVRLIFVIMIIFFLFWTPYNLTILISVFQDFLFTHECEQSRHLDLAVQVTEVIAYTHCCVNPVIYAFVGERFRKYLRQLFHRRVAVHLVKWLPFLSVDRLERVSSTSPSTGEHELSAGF
Source text: To evaluate the CCR1 affinity of previously reported (8–9) and new fluorescently labeled pyrrolones (11–12), we developed a NanoBRET-based binding assay (Figures 4A–H and S2A–J). To this end, we used a previously reported CCR1 construct (hereafter referred to as CCR1_Nluc) with a small and bright luciferase variant (nanoluciferase,[52] Nluc), fused to the intracellular C-terminus of CCR1 (Figures 4A and S2A).[47] […] This was expected, given the very low CCR2/CCR1 selectivity of the parental ligands 4 and 5 (Figure 1).[33] For further studies, we selected 12 due to its highest CCR1 affinity.
Cell culture: HEK293T cells were cultured as previously described.8 In brief, HEK293T cells (gift from Chair of Physiology, Prof. Dr. Alzheimer, FAU Erlangen-Nürnberg) were grown on 10 cm culture dishes at 37 °C and 5% CO2. As growth medium, Dulbecco's Modified Eagle Medium (DMEM)/F12 (Invitrogen) supplemented with 10% fetal bovine serum (FBS, Gibco™ Fetal Bovine Serum, qualified, Brazil), L-glutamine (final concentration: 2 mM; from Gibco™ L-glutamine 200 mM, 100X), penicillin (final concentration: 100 units/mL), and streptomycin (final concentration: 100 µg/mL; from Gibco™ Penicillin-Streptomycin 10,000 U/mL) was used. Cells were split every three to four days and regularly confirmed to be free of mycoplasma contamination using the luminescence-based MycoAlert Plus Kit (Lonza).
Transient transfection using polyethylenimine: For transfection, we used a previously published procedure.8 In brief, HEK293T cells were plated onto culture dishes (Ø 10 cm or Ø 15 cm) and grown to a confluence of approximately 50% at 37 °C and 5% CO2. The growth medium was renewed one-hour before transfection. The transfection mix was prepared, as described in the following. Solution A (0.4-2.2% total DNA (1-5.5 µg) in Gibco™ phosphate buffered saline, pH 7.4) and solution B (3% PEI (linear, 25 kDa, from Polysciences) solution prepared from a PEI stock solution (0.4 µg/µL) in PBS without MgCl2 and CaCl2) were mixed one to one, the resulting mixture was vortexed for 5 s and incubated for 30 min at room temperature. The pre-incubated transfection mix was added dropwise to the cells and cell cultivation was continued […]
Membrane preparation: Membranes were prepared as previously reported.8 In brief, membranes from HEK293T cells transiently expressing the respective GPCR were prepared as follows. The medium of the transfected cells was refreshed after 24 h before cells were harvested 48 h post-transfection. […]
Finally, the protein concentration was determined using the Lowry method.9 cDNA constructs: The CCR1-Nluc fusion construct (CCR1_Nluc) in pcDNA3.1 was generated as previously reported1 using the Gibson Assembly10 (New England Biolabs) method. […]

[1] = target: T3, human chemokine receptor CCR2 (Homo sapiens, UniProt P41597); test: Cellular NanoBiT β-arrestin recruitment assay; format: cell-based; conditions: n = 1; read-out: EC50, β-arrestin-2 recruitment, CCR2 activation
T3 construct: expressed in transfected cells; host or cells: HEK293T, transient
Method: (PerkinElmer, Groningen, NL).
(§1) Cellular NanoBiT β-arrestin recruitment assays: Chemokine-induced β-arrestin-2 recruitment to chemokine receptors CCR1 and CCR2 was monitored using a nanoluciferase complementation -based assay (NanoBiT, Promega). 17-19 5 x 10^6 HEK293T cells were plated in 10 cm dishes and cultured for 24 h before transfection with vectors encoding for the human chemokine receptor CCR1 or CCR2 C-terminally fused with SmBiT and β-arrestin 2 N-terminally fused with LgBiT. 24 h after transfection cells were harvested, distributed into white 96-well plates (5 × 10^4 cells per well) and incubated for 1 h at 37 °C with compound 23 at concentrations ranging from 10 nM to 10 µM. The endogenous chemokine ligand CCL5 (3 nM, for CCR1) or CCL2 (10 nM, for CCR2) was then added, and luminescence generated upon nanoluciferase complementation in the presence of coelenterazine H was measured with a Mithras LB940 luminometer (Berthold Technologies) for 20 min. […]
(§2) Finally, the top 5% of the identified hits were subsequently docked to a homology model of CCR1 (vide infra). After visual examination of the obtained binding modes 24 hit compounds were identified for further investigation .
(§3) Molecular docking: For the docking studies in the course of our virtual screening campaign, the CCR1 protein was […]
(§4) 27, 28 CCR1 structure was optimized using the Quickprep and structure preparation wizard in MOE 24 using CHARMM27 forcefield. The protein was saved in mol2 format and loaded in GOLD.25, 26 The amino acids defining the IABS were listed in a text file to define the docking cavity. 50 GA runs were performed for docking CCR2-RA-[R] (4-[R]) and SN_12 (43), with the generated solutions clustered based on their RMSD with the threshold set to 0.75 Å using the complete linkage method. Docking runs were performed using ChemScore. […]

[2] = target: T4, human chemokine receptor CCR1 (Homo sapiens, UniProt P32246); test: Cellular NanoBiT β-arrestin recruitment assay; format: cell-based; conditions: n = 3; read-out: EC50, β-arrestin-2 recruitment, CCR1 activation
T4 construct: expressed in transfected cells; host or cells: HEK293T, transient
T4 sequence (P32246 1-355): T2 sequence (P32246 1-355)
Method: as §1, with “CCR1” for “Cellular NanoBiT β-arrestin recruitment assays: Chemokine-induced β-arrestin-2 recruitment to chemokine receptors CCR1”
as §2, §3
27, 28 CCR1 structure was optimized using the Quickprep and structure preparation wizard in MOE 24 using CHARMM27 forcefield. The protein was saved in mol2 format and loaded in GOLD.25, 26 The amino acids defining the IABS were listed in a text file to define the docking cavity. 50 GA runs were performed for docking CCR2-RA-[R] (4-[R]) and SN_12 (43), with the generated solutions clustered based on their RMSD with the threshold set to 0.75 Å using the complete linkage method. Docking runs were performed using ChemScore. Flexibility of amino acids Lys63ICL1, Arg1313.50, Leu2406.36 and Arg3078.49 was taken in consideration in the docking runs, with conformational sampling of their side chains being done by the rotamer libraries implemented in GOLD.25, 26 For the docking studies with our ligand-linker conjugates (Figure S1), molecular ligand structures were geometry optimized as neutral molecules by means of Avogadro (Version 1.2.0)29 using the Universal Force Field (UFF) and the Steepest Decent Algorithm until convergence (ΔE = 0).
CCR113 was used for docking. The compounds were docked by means of AutoDock Vina 1.1.2.30, 31 An exhaustiveness value of 8 and a search space of 22 x 22 x 22 Å³ was applied around the unliganded intracellular allosteric binding site of CCR1. Twenty docking poses were generated for each ligand and inspected manually and according to the docking score.

[3] = target: T4, human chemokine receptor CCR1; test: Cellular NanoBiT miniGi recruitment assay; format: cell-based; conditions: n = 3; read-out: EC50, miniGi recruitment, CCR1 activation
Method: Technologies) for 20 min.
Cellular NanoBiT miniGi recruitment assay s: Chemokine-induced Gi recruitment to the chemokine receptor CCR1 was monitored using a nanoluciferase complementation -based assay (NanoBiT, Promega). 20 5 x 10^6 HEK293T cells were plated in 10 cm dishes and cultured for 24 h before transfection with vectors encoding for the human chemokine receptor CCR1 C-terminally fused with SmBiT and miniGi (mG, engineered GTPase domain of Gα subunit) N-terminally fused with LgBiT. 24 h after transfection cells were harvested, distributed into white 96 -well plates (5 × 10^4 cells per well) and incubated for 1 h at 37 °C with compound 23 at concentrations ranging from 10 nM to 100 µM. The endogenous chemokine ligand CCL5 (3 nM, for CCR1) was then added, and luminescence generated upon nanoluciferase complementation in the presence of coelenterazine H was measured with a Mithras LB940 luminometer (Berthold Technologies) for 20 min. […]
as §2, §3, §4

T3 sequence (P41597 whole entry): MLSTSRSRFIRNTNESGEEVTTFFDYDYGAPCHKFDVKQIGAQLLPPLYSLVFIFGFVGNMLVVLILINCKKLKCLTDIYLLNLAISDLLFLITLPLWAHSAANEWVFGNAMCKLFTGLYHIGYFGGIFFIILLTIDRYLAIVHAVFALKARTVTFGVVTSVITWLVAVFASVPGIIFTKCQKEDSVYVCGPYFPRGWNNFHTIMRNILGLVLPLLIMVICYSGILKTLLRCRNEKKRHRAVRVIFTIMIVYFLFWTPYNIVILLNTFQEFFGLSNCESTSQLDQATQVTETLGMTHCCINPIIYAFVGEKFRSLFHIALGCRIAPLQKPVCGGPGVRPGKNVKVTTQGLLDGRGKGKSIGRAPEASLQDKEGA

Kd (CCR1) | EC50 [2] | EC50 [3] | Compound | Kd (CCR2) | EC50 [1]
11.3 ± 0.8 µM |  |  | CN(C)c1ccc2c(-c3cc(C(=O)NCc4cn(CCCC(=O)C5=C(O)C(=O)N(c6ccc(Cl)cc6F)C5C5CCCCC5)nn4)ccc3C(=O)[O-])c3ccc(=[N+](C)C)cc-3oc2c1 (stereo not shown) [compound 8] | 2.26 µM | 
14.9 ± 2.1 µM |  |  | CN(C)c1ccc2c(-c3cc(C(=O)NCc4cn(CCCC(=O)C5=C(O)C(=O)N(c6ccc(Br)cc6F)C5C5CCCCC5)nn4)ccc3C(=O)[O-])c3ccc(=[N+](C)C)cc-3oc2c1 (stereo not shown) [compound 9] | 2.27 µM | 
 |  |  | CCL2: endogenous chemokine ligand, CCR2 agonist |  | 0.00743 µM
 | 0.00101 µM | 0.00293 µM | CCL5: endogenous chemokine ligand, CCR1 agonist |  | 
